Assay results published in patent publication US20080045535A1, “Prokineticin 2 receptor antagonists” (priority 2005, published 2008).
“And” between values parts separate entries of the source, which are not always exact repeats. Identical values can stand only once.

Target: T1, HEK 293 GPR73 (prokineticin 1 receptor) expressing cells (Homo sapiens, UniProt Q8TCW9)
T1 construct: expressed in transfected cells; host or cells: HEK 293
Assay: PK1 functional assay: screening for PK1 antagonists on the FLIPR (calcium fluorescence)
Assay type: cell-based
Conditions: HEK 293 GPR73 cells; for inhibition at 10 µM: HEK293, compound at 10 μM, read-out: Ca^2+ Mobilization % Inh @10 μM; for inhibition at 10 µM / Ca^2+ Mobilization % Inh @10 μM: multiple values = repeat tests; for IC50: PK1 ligand at EC50, multiple values = repeat tests, read-out: Ca^2+ Mobilization IC50; for Ca^2+ Mobilization % Inh @10 μM: compound at 10 μM
Protocol: At a time of 24 h prior to running the assay, in cell culture media (DMEM containing high Glucose and L-glutamine, 10% FBS, 1% Pen/Streptomycin, 1% Sodium Pyruvate, 20 mM HEPES, Zeocin 200 mg/L), 100 μL of 1.3*10^6/ml HEK 293 GPR73 (prokineticin 1 receptor) expressing cells were plated in a 96 well poly-d-lysine coated plate (Costar), and incubated at 37 C and 5% CO2. On the day in which the assay was run, the media was removed and 200 μL of 5× Calcium Plus Dye (Molecular Devices) which was previously resuspended with 200 mL of assay buffer [HBSS w/Ca^2+ and Mg^2+ w/o phenol red, 20 mM HEPES, 0.1% BSA, 10 mL probenecid (710 mg probenecid in 5 mL of 1N NaOH, to which was then added 5 mL HBSS containing 20 mM HEPES)] was added to each well of the 96-well plate. The plate was incubated at 37 C and 5% CO2 for 30 min in dark. The plate was removed and allowed to reach RT for 15 min in the dark. The assay was then run on the FLIPR. […] Baseline is described as the amount of relative fluorescence read when buffer alone is added to cells. Baseline was subtracted from all wells. Percent of control was calculated as follows:
(Baseline subtracted well value is divided by baseline subtracted max value)*100.
Percent inhibition is 100 minus the percent of control value.
IC50 values were calculated using GraphPad Prism.
Table 2 includes data generated from the PK1 functional assay described in Example 2.

T1 sequence (Q8TCW9 whole entry): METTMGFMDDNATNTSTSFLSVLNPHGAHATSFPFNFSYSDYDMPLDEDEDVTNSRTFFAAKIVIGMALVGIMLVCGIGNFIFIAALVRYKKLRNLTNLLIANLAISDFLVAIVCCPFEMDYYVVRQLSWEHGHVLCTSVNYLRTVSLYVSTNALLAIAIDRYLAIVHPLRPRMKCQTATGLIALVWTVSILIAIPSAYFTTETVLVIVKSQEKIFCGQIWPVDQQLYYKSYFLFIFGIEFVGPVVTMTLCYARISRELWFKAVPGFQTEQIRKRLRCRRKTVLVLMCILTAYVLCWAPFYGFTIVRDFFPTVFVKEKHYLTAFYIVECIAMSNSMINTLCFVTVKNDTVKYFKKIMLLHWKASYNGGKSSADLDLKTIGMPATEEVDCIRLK

inhibition at 10 µM [%]	IC50	Ca^2+ Mobilization % Inh @10 μM (10 µM)	Ca^2+ Mobilization % Inh @10 μM	Structure (SMILES)
94	798 nM			COc1ccc(Cn2c(NCCNC3=NCC(=O)N3)nc(=O)n(Cc3ccc(Cl)c(Cl)c3)c2=O)cc1 [Cpd 48, 3-(3,4-Dichloro-benzyl)-1-(4-methoxy-benzyl)-6-[2-(5-oxo-4,5-dihydro-1H-imidazol-2-ylamino)-ethylamino]-1H-[1,3,5]triazine-2,4-dione]
75	2000 nM			COc1ccc(Cn2c(NCCNC3=NCCN3)nc(=O)n(Cc3ccc(Cl)c(Cl)c3)c2=O)cc1 [Cpd 49, 3-(3,4-Dichloro-benzyl)-6-[2-(4,5-dihydro-1H-imidazol-2-ylamino)-ethylamino]-1-(4-methoxy-benzyl)-1H-[1,3,5]triazine-2,4-dione]
96	248 nM			CC(=O)Nc1ccc(Cn2c(NCCNC(=N)N)nc(=O)n(Cc3ccc(Cl)c(Cl)c3)c2=O)cc1 [Cpd 50]
100	47 nM			N=C(N)NCCNc1nc(=O)n(Cc2ccc(Cl)c(Cl)c2)c(=O)n1Cc1ccc(C(N)=O)cc1 [Cpd 51, 4-[3-(3,4-Dichlorobenzyl)-6-(2-guanidinoethylamino)-2,4-dioxo-3,4-dihydro-2H-[1,3,5]triazin-1-yl-methyl]-benzamide]
58	6520 nM			CCOc1cccc(Cn2c(NCCNC(=N)N)nc(=O)n(Cc3ccc(Cl)c(Cl)c3)c2=O)c1 [Cpd 52]
98	14 nM and 6 nM	101%		CCCNC(=N)NCCNc1nc(=O)n(Cc2ccc(Cl)c(Cl)c2)c(=O)n1Cc1ccc(OC)cc1 [Cpd 54]
58	6730 nM			COc1ccc(Cn2c(N3CCC(NC(=N)N)C3)nc(=O)n(Cc3ccc(Cl)c(Cl)c3)c2=O)cc1 (stereo not shown) [Cpd 55]
98	61 nM			COc1ccc(Cn2c(N[C@@H]3CCCC[C@H]3NC(=N)N)nc(=O)n(Cc3ccc(Cl)cc3)c2=O)cc1 [Cpd 56]
51	8210 nM			N=C(N)NCCNc1nc(=O)n(Cc2ccc(Cl)c(Cl)c2)c(=O)n1Cc1cccc(OC(F)F)c1 [Cpd 57]
	16 nM	102% and 99% and 98%		COc1ccc(Cn2c(NCCN(C(=N)N)C(C)C)nc(=O)n(Cc3ccc(Cl)c(Cl)c3)c2=O)cc1 [Cpd 58, N-{2-[5-(3,4-Dichloro-benzyl)-1-(4-methoxy-benzyl)-4,6-dioxo-1,4,5,6-tetrahydro-[1,3,5]triazin-2-ylamino]-ethyl}-N-isopropyl-guanidine]
99	50 nM and 35 nM	100%		CCN(CCNc1nc(=O)n(Cc2ccc(Cl)c(Cl)c2)c(=O)n1Cc1ccc(OC)cc1)C(=N)N [Cpd 59]
100	54 nM			COc1ccc(Cn2c(NCCN3CCNC3=N)nc(=O)n(Cc3ccc(Cl)c(Cl)c3)c2=O)cc1 [Cpd 60, 3-(3,4-Dichloro-benzyl)-6-[2-(2-imino-imidazolidin-1-yl)-ethylamino]-1-(4-methoxy-benzyl)-1H-[1,3,5]triazine-2,4-dione]
102	45 nM			CCCCNC(=N)NCCNc1nc(=O)n(Cc2ccc(Cl)c(Cl)c2)c(=O)n1Cc1ccc(OC)cc1 [Cpd 61]
98	59 nM			COc1ccc(Cn2c(NCCNC(=N)NC3CCCCC3)nc(=O)n(Cc3ccc(Cl)c(Cl)c3)c2=O)cc1 [Cpd 62]
101	120 nM			COc1ccc(Cn2c(NCCNC(=N)NCc3ccccc3)nc(=O)n(Cc3ccc(Cl)c(Cl)c3)c2=O)cc1 [Cpd 63]
100	72 nM			COc1ccc(Cn2c(NCCNC(=N)NCC3CCCO3)nc(=O)n(Cc3ccc(Cl)c(Cl)c3)c2=O)cc1 (stereo not shown) [Cpd 64]
	485 nM		88%	COc1ccc(Cn2c(NCCNC(=N)NCCc3ccccc3)nc(=O)n(Cc3ccc(Cl)c(Cl)c3)c2=O)cc1 [Cpd 65]
99	23 nM			COc1ccc(Cn2c(NCCNC(=N)NCc3ccco3)nc(=O)n(Cc3ccc(Cl)c(Cl)c3)c2=O)cc1 [Cpd 66]

inhibition at 10 µM [%]	IC50	Ca^2+ Mobilization % Inh @10 μM (10 µM)	Ca^2+ Mobilization % Inh @10 μM	Structure (SMILES)
99	18 nM			COCCNC(=N)NCCNc1nc(=O)n(Cc2ccc(Cl)c(Cl)c2)c(=O)n1Cc1ccc(OC)cc1 [Cpd 67]
84	1210 nM			COc1ccc(Cn2c(NCCCNC(=N)N)nc(=O)n(Cc3ccc(Cl)c(Cl)c3)c2=O)cc1 [Cpd 68]
101	9 nM and 7 nM		101, 101%	C=CCNC(=N)NCCNc1nc(=O)n(Cc2ccc(Cl)c(Cl)c2)c(=O)n1Cc1ccc(OC)cc1 [Cpd 70]
100	12 nM and 7 nM	99%		COc1ccc(Cn2c(NCCNC(=N)Nc3ccccc3)nc(=O)n(Cc3ccc(Cl)c(Cl)c3)c2=O)cc1 [Cpd 71]
100	64 nM			COc1ccc(Cn2c(NCCNC(=N)Nc3ccc(OC)cc3)nc(=O)n(Cc3ccc(Cl)c(Cl)c3)c2=O)cc1 [Cpd 72]
100	39 nM			COc1ccc(Cn2c(NCCNC(=N)Nc3ccc(Cl)cc3)nc(=O)n(Cc3ccc(Cl)c(Cl)c3)c2=O)cc1 [Cpd 73]
100	138 nM			COc1ccc(Cn2c(NCCNC(=N)Nc3ccc(C(F)(F)F)cc3)nc(=O)n(Cc3ccc(Cl)c(Cl)c3)c2=O)cc1 [Cpd 74]
101	36 nM			COc1ccc(Cn2c(NCCNC(=N)Nc3cccnc3)nc(=O)n(Cc3ccc(Cl)c(Cl)c3)c2=O)cc1 [Cpd 75]
93	230 nM			COc1ccc(Cn2c(NCCNC(=N)Nc3ccc(C(C)=O)cc3)nc(=O)n(Cc3ccc(Cl)c(Cl)c3)c2=O)cc1 [Cpd 76]
81	789 nM			COc1ccc(Cn2c(NCCNC(=N)N)nc(=O)n(Cc3ccoc3)c2=O)cc1 [Cpd 77]
89	300 nM			COc1ccc(Cn2c(NCCNC(=N)N)nc(=O)n(Cc3cccs3)c2=O)cc1 [Cpd 78]
101	71 nM			COc1ccc(Cn2c(NCCNC(=N)N)nc(=O)n(C(C)c3ccc(OC)cc3)c2=O)cc1 (stereo not shown) [Cpd 79]
100	71 nM			COc1ccc(Cn2c(NCCNC(=N)N)nc(=O)n(Cc3ccc(OC(F)F)cc3)c2=O)cc1 [Cpd 80]
84	452 nM			COc1ccc(Cn2c(NCCNC(=N)N)cc(=O)n(Cc3ccccc3)c2=O)cc1 [Cpd 81, N-{2-[1-Benzyl-3-(4-methoxy-benzyl)-2,6-dioxo-1,2,3,6-tetrahydro-pyrimidin-4-ylamino]-ethyl}-guanidine]
84	498 nM			C=CCC(c1ccc(OC)cc1)n1c(=O)nc(NCCNC(=N)N)n(Cc2ccc(OC)cc2)c1=O (stereo not shown) [Cpd 82]
80	988 nM			C=CCC(c1ccc(Cl)cc1)n1c(=O)nc(NCCNC(=N)N)n(Cc2ccc(OC)cc2)c1=O (stereo not shown) [Cpd 83]
99	42 nM			COc1ccc(Cn2c(NCCNC(=N)N)cc(=O)n(Cc3ccc(OC)cc3)c2=O)cc1 [Cpd 84, N-{2-[1,3-Bis-(4-methoxy-benzyl)-2,6-dioxo-1,2,3,6-tetrahydro-pyrimidin-4-ylamino]-ethyl}-guanidine]
96	51 nM			COc1ccc(Cn2c(=O)nc(NCCNC(=N)N)n(Cc3ccc(OC)nc3)c2=O)cc1 [Cpd 85]
